Experiments:
[1] = target: T1, 5HT1 A receptors (Homo sapiens, UniProt P08908); assay: conventional binding techniques, 5HT1 A receptors; conditions: for Ki: affinity expressed as K 0.5 (Ki) for the 5HT1 A receptors, conventional binding techniques, called K 0.5 for the (+) isomer, Ki for the (-) isomer; for selectivity (5HT1 A versus D2 receptors): ratio of D2 to 5HT1 A affinity constants
T1 sequence (P08908 1-422): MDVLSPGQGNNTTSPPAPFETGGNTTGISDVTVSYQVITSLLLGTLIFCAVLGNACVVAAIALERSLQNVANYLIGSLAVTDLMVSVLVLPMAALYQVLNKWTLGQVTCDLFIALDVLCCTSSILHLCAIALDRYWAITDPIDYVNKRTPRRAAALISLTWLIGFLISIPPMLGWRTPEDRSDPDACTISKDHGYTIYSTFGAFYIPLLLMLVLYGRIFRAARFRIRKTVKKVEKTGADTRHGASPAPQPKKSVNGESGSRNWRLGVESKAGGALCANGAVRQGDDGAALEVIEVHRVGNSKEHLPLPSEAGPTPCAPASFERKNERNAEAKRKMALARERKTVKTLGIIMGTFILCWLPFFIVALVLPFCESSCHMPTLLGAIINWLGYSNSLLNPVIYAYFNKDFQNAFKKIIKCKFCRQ
Excerpt: (§1) If conventional binding techniques are used, the affinity of the (+) isomer of the compound of formula (II), expressed as K 0.5, is 2×10^-10for the 5HT1 A receptors and 2×10^-8 for the D2 receptors, which is equivalent to a selectivity of the order of 100.

[2] = target: D2 receptors (Homo sapiens, UniProt P14416); assay: conventional binding techniques, D2 receptors; conditions: called K 0.5 for the (+) isomer, read-out: affinity expressed as K 0.5 (Ki) for the D2 receptors
Sequence of D2 receptors (P14416 whole entry): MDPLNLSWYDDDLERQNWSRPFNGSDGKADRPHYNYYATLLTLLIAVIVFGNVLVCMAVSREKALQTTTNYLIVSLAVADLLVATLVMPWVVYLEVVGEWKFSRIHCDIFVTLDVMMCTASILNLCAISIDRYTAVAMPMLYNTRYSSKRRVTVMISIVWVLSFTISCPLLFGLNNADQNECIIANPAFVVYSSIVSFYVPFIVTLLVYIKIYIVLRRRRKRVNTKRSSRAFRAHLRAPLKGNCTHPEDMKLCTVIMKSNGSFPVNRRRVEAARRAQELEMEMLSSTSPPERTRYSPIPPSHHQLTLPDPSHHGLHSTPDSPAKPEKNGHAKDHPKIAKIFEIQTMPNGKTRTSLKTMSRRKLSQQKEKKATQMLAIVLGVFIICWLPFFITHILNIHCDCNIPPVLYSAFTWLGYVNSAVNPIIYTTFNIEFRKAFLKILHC
Excerpt: as §1

| Structure (SMILES) | Ki [1] [nM] | selectivity (5HT1 A versus D2 receptors) [1] | Ki [2] [nM] | affinity for the 5HT1 A receptors relative to that of the (-) isomer ([1]; (+) isomer compared with (-) isomer) | specificity relative to the (-) isomer ([1]; (+) isomer compared with (-) isomer, 5HT1 A versus D2) [times] |
| --- | --- | --- | --- | --- | --- |
| CCCN(CCCCN1C(=O)CC2(CCCC2)CC1=O)C1COc2cccc(OC)c2C1 (single isomer, unassigned; (-)) [(-) isomer] | 2 | ~5 | 10 |  |  |
| CCCN(CCCCN1C(=O)CC2(CCCC2)CC1=O)C1COc2cccc(OC)c2C1 (single isomer, unassigned; (+)) [(+) isomer of the compound of formula (II)] | 0.2 | ~100 | 20 | about 10 times | 20 |
